According to patent publication US20230107277A1, “SUBSTITUTED PYRIDAZINE COMPOUND” (Astellas Pharma Inc., priority 2020, published 2023):

What was measured:
[1] = test system: IL-1β Production of THP-1; assay: Test on IL-1β production of THP-1 (LPS and ATP stimulation, ELISA); format: cell-based; conditions: Homo sapiens; PMA-differentiated THP-1 cells, LPS 50 ng/mL and ATP 5 mM, 2 hours
Description: 50 ng/mL of PMA (phorbol myristate acetate, SIGMA, P1585) was added to THP-1 cells, and the cells were cultured at 37° C. for 2 days. […] LPS (Lipopolysaccharide, SIMGA, L2880) and ATP (Adenosine triphosphate, SIGMA, A2383) were added to final concentrations of 50 ng/mL and 5 mM, respectively, and the cells were cultured at 37° C. for 2 hours. The supernatant was collected, and the concentration of IL-1β was measured by an ELISA method (DuoSet ELISA human IL-1β, R&D Systems, DY201). […] The IC50 value was calculated by sigmoid […] model non-linear regression analysis.

[2] = test system: IL-1β p17 in the cerebral spinal fluid; assay: Test on IL-1β production in rat central nerve (LPS/BzATP intracisternal, CSF Western blot); conditions: oral
Description: After 2 hours, the test compound was orally administered. After 1 hour, 50 μg/5 μL of BzATP (2′(3′)-O-(4-Benzoylbenzoyl)adenosine 5′-triphosphate triethylammonium salt, SIGMA, B6396) was intracisternally administered, and after 30 minutes, a cerebral spinal fluid was collected. The amount of IL-1β p17 in the cerebral spinal fluid was determined by a Western blotting method using an anti-IL-1β antibody (Millipore, AB1832P), and the inhibition ratio to the solvent administration group was calculated.

Row | SMILES | IC50 [1] [nM] | other results
1 | Cc1c(NC[C@@H](C)O)nnc(-c2ccc(C(F)(F)F)cc2C(F)(F)F)c1C [Example 4, (2R)-1-({6-[2,4-bis(trifluoromethyl)phenyl]-4,5-dimethylpyridazin-3-yl}amino)propan-2-ol] | 210 | IL-1β p17 inhibition ratio to the solvent administration group ([2]; Dose 3 mg/kg): 68%; IL-1β p17 inhibition ratio to the solvent administration group ([2]; Dose 10 mg/kg): 93%; IL-1β p17 inhibition ratio to the solvent administration group ([2]; Dose 30 mg/kg): 100%
2 | Cc1cc(NC[C@@H](C)O)nnc1-c1ccccc1O [Example 25] | 500 | –
3 | Cc1cc(NC[C@@H](C)O)nnc1-c1cccc(F)c1O [Example 30] | 510 | –
4 | OCCCNc1nnc(-c2ccc(C(F)(F)F)cc2)cc1-c1ccccc1 [Example 2] | 1800 | –

The next compounds have a lower IC50 [1] than those just listed; values first:

Row | IC50 [1] [nM] | SMILES | other results
5 | 49 | Cc1c(NC[C@@H](C)O)nnc(-c2ccc(Cl)cc2O)c1C [Example 65] | –
6 | 14 | Cc1c(NC[C@@H](C)O)nnc(-c2ccc(C(F)(F)F)cc2O)c1C [Example 9, 2-(6-{[(R2R)-2-hydroxypropyl]amino}-4,5-dimethylpyridazin-3-yl)-5-(trifluoromethyl)phenol] | IL-1β p17 inhibition ratio to the solvent administration group ([2]; Dose 0.3 mg/kg): 37%; IL-1β p17 inhibition ratio to the solvent administration group ([2]; Dose 1 mg/kg): 70%; IL-1β p17 inhibition ratio to the solvent administration group ([2]; Dose 3 mg/kg): 89%
7 | 170 | CCc1c(NC[C@@H](C)O)nnc(-c2ccc(C(F)(F)F)cc2O)c1CC [Example 67] | –
8 | 200 | CC(O)CNc1ccc(-c2ccc(C(F)(F)F)cc2C(F)(F)F)nn1 (stereo not shown) [Example 10] | –
9 | 43 | Cc1c(NC[C@H](C)O)nnc(-c2ccc(C(F)(F)F)cc2O)c1C [Example 73] | –
10 | 38 | Cc1c(NCC(C)CO)nnc(-c2ccc(C(F)(F)F)cc2O)c1C (stereo not shown) [Example 71] | –
